Tested on: human dermal papilla cells
Assay: Human dermal papilla cell proliferation test
Format: cell-based
Details: 0.002% in culture media; cell count at 12-60 hour; FIG. 1; result in words
Method: The promotion of cell proliferation by adenine was evaluated using human dermal papilla cells, compared with adenosine, and minoxidil under the following conditions, the results are shown in FIG. 1. Determination of the proliferation of human dermal papilla cells in the culture media containing adenine, adenosine, and minoxidil. Supplements: 0.002% of adenine, adenosine, minoxidil. • (1) Prepare 0.002% adenine, adenosine, minoxidil containing testing media using the hair follicle dermal papilla cell media (cat. No. 611-500, Cell applications, Inc) . • (2) Seed the isolated human dermal papilla cells in 96-well culture plate with a density of 5,000 cells per well. Add 0.1 mL prepared culture media into individual well. • (3) At 12, 24, 36, 48 and 60 hour after cell seeding, visually count the total cell number using hemacytometer. • (4) Evaluate the result.

Structure (SMILES): Nc1ncnc2nc[nH]c12 [adenine]
- proliferation of human dermal papilla cells: promotes the proliferation

— patent publication EP2465581B1, “Non-therapeutic use of a composition for promoting hair growth” (Energenesis Biomedical Co., Ltd., priority 2010, dated 2012)
